In ChEMBL document CHEMBL5303573, “Mapping human microbiome drug metabolism by gut bacteria and their genes” (Nature, 2019):

Key:
[1] = bifidobacterium adolescentis, 12 h, 2 µM
Description: The drug is tested on Bifidobacterium adolescentis strain: ATCC 15703 for biotransformation. The drug concentrations were measured before and after a 12-h incubation by liquid-chromatography-coupled mass spectrometry (LC–MS)

[2] = The drug is tested on Enterobacter cancerogenus strain: ATCC35316 for biotransformation. The drug concentrations were measured before and after a 12-h incubation by liquid-chromatography-coupled mass spectrometry (LC–MS); conditions: 2 µM
[3] = roseburia intestinalis, 12 h, 2 µM
Description: The drug is tested on Roseburia intestinalis strain: L1-82 for biotransformation. The drug concentrations were measured before and after a 12-h incubation by liquid-chromatography-coupled mass spectrometry (LC–MS)

[4] = anaerostipes sp., 12 h, 2 µM
Description: The drug is tested on Anaerostipes sp. strain: fecal isolate for biotransformation. The drug concentrations were measured before and after a 12-h incubation by liquid-chromatography-coupled mass spectrometry (LC–MS)

[5] = The drug is tested on Anaerotruncus colihominis strain: DSM17241 for biotransformation. The drug concentrations were measured before and after a 12-h incubation by liquid-chromatography-coupled mass spectrometry (LC–MS); conditions: 2 µM
[6] = The drug is tested on Clostridium sp. strain: fecal isolate for biotransformation. The drug concentrations were measured before and after a 12-h incubation by liquid-chromatography-coupled mass spectrometry (LC–MS); conditions: 2 µM
[7] = bacteroides fragilis, 12 h, 2 µM
Description: The drug is tested on Bacteroides fragilis strain: 3397 (T10) for biotransformation. The drug concentrations were measured before and after a 12-h incubation by liquid-chromatography-coupled mass spectrometry (LC–MS)

[8] = bacteroides intestinalis, 12 h, 2 µM
Description: The drug is tested on Bacteroides intestinalis strain: DSM17393 for biotransformation. The drug concentrations were measured before and after a 12-h incubation by liquid-chromatography-coupled mass spectrometry (LC–MS)

[9] = The drug is tested on Bifidobacterium longum subsp. Infantis strain: CCUG52486 for biotransformation. The drug concentrations were measured before and after a 12-h incubation by liquid-chromatography-coupled mass spectrometry (LC–MS); conditions: 2 µM
[10] = The drug is tested on Bacteroides finegoldii strain: DSM17565 for biotransformation. The drug concentrations were measured before and after a 12-h incubation by liquid-chromatography-coupled mass spectrometry (LC–MS); conditions: 2 µM
[11] = bacteroides thetaiotaomicron, 12 h, 2 µM
Description: The drug is tested on Bacteroides thetaiotaomicron strain: VPI-5482 for biotransformation. The drug concentrations were measured before and after a 12-h incubation by liquid-chromatography-coupled mass spectrometry (LC–MS)

[12] = The drug is tested on Dorea formicigenerans strain: ATCC27755 for biotransformation. The drug concentrations were measured before and after a 12-h incubation by liquid-chromatography-coupled mass spectrometry (LC–MS); conditions: 2 µM
[13] = The drug is tested on Ruminococcus torques strain: ATCC27756 for biotransformation. The drug concentrations were measured before and after a 12-h incubation by liquid-chromatography-coupled mass spectrometry (LC–MS); assay type: ADME; design: dose 2 uM, timepoint 0 vs 12 hours; conditions: 2 µM
[14] = The drug is tested on Alistipes indistinctus strain: DSM22520 for biotransformation. The drug concentrations were measured before and after a 12-h incubation by liquid-chromatography-coupled mass spectrometry (LC–MS); conditions: 2 µM
[15] = bacteroides thetaiotaomicron, 12 h, 2 µM; remark: listed apart in the source
Description: The drug is tested on Bacteroides thetaiotaomicron strain: 7330 for biotransformation. The drug concentrations were measured before and after a 12-h incubation by liquid-chromatography-coupled mass spectrometry (LC–MS)

[16] = The drug is tested on Bacteroides coprophilus strain: DSM18228 for biotransformation. The drug concentrations were measured before and after a 12-h incubation by liquid-chromatography-coupled mass spectrometry (LC–MS); conditions: 2 µM
[17] = The drug is tested on Ruminococcus gnavus strain: ATCC29149 for biotransformation. The drug concentrations were measured before and after a 12-h incubation by liquid-chromatography-coupled mass spectrometry (LC–MS); conditions: mediterraneibacter gnavus, 2 µM
[18] = bacteroides thetaiotaomicron, 12 h, 2 µM; remark: listed apart in the source
Description: The drug is tested on Bacteroides thetaiotaomicron strain: 3731 for biotransformation. The drug concentrations were measured before and after a 12-h incubation by liquid-chromatography-coupled mass spectrometry (LC–MS)

[19] = The drug is tested on Bacteroides xylanisolvens strain: DSM18836 for biotransformation. The drug concentrations were measured before and after a 12-h incubation by liquid-chromatography-coupled mass spectrometry (LC–MS); conditions: 2 µM
[20] = parabacteroides distasonis, 12 h, 2 µM
Description: The drug is tested on Parabacteroides distasonis strain: ATCC8503 for biotransformation. The drug concentrations were measured before and after a 12-h incubation by liquid-chromatography-coupled mass spectrometry (LC–MS)

SMILES	Bacterial Biotransformation [1]	Bacterial Biotransformation [2]	Bacterial Biotransformation [3]	Bacterial Biotransformation [4]	Bacterial Biotransformation [5]	Bacterial Biotransformation [6]	Bacterial Biotransformation [7]	Bacterial Biotransformation [8]	Bacterial Biotransformation [9]	Bacterial Biotransformation [10]	Bacterial Biotransformation [11]	Bacterial Biotransformation [12]	Bacterial Biotransformation [13]	Bacterial Biotransformation [14]	Bacterial Biotransformation [15]	Bacterial Biotransformation [16]	Bacterial Biotransformation [17]	Bacterial Biotransformation [18]	Bacterial Biotransformation [19]	Bacterial Biotransformation [20]
Br.COc1ccc2c(c1)[C@]13CCCC[C@@H]1[C@H](C2)N(C)CC3.O [DEXTROMETHORPHAN HYDROBROMIDE]	Compound NOT metabolized	Compound NOT metabolized	Compound NOT metabolized	Compound NOT metabolized	Compound NOT metabolized	Compound NOT metabolized	Compound NOT metabolized	Compound NOT metabolized	Compound NOT metabolized	Compound NOT metabolized	Compound NOT metabolized	Compound NOT metabolized	Compound NOT metabolized	Compound NOT metabolized	Compound NOT metabolized	Compound NOT metabolized	Compound NOT metabolized	–	–	–
CCN(CC)CCOC(=O)C1(C2CCCCC2)CCCCC1 [DICYCLOMINE]	Compound NOT metabolized	Compound NOT metabolized	–	Compound NOT metabolized	Compound NOT metabolized	–	–	–	–	–	Compound NOT metabolized	Compound NOT metabolized	Compound metabolized	Compound NOT metabolized	Compound NOT metabolized	Compound NOT metabolized	Compound NOT metabolized	Compound NOT metabolized	Compound metabolized	Compound metabolized
COc1cc2nc(N3CCN(C(=O)C4COc5ccccc5O4)CC3)nc(N)c2cc1OC.CS(=O)(=O)O (stereo unspecified) [DOXAZOSIN MESYLATE]	Compound NOT metabolized	Compound NOT metabolized	Compound NOT metabolized	–	Compound NOT metabolized	Compound metabolized	Compound NOT metabolized	Compound NOT metabolized	–	Compound NOT metabolized	Compound NOT metabolized	Compound NOT metabolized	Compound NOT metabolized	Compound metabolized	Compound NOT metabolized	Compound NOT metabolized	Compound NOT metabolized	Compound NOT metabolized	–	–
O=C(CCCN1CCC(O)(c2ccc(Cl)cc2)CC1)c1ccc(F)cc1 [HALOPERIDOL]	Compound NOT metabolized	Compound NOT metabolized	Compound NOT metabolized	Compound NOT metabolized	–	–	Compound NOT metabolized	Compound NOT metabolized	Compound NOT metabolized	Compound NOT metabolized	Compound NOT metabolized	Compound NOT metabolized	Compound NOT metabolized	Compound NOT metabolized	Compound NOT metabolized	–	Compound NOT metabolized	Compound NOT metabolized	–	–
Cc1ccc(NC(=O)c2ccc(CN3CCN(C)CC3)cc2)cc1Nc1nccc(-c2cccnc2)n1 [IMATINIB]	Compound NOT metabolized	Compound NOT metabolized	Compound NOT metabolized	Compound NOT metabolized	Compound NOT metabolized	–	–	Compound NOT metabolized	–	Compound NOT metabolized	Compound NOT metabolized	Compound NOT metabolized	Compound NOT metabolized	Compound NOT metabolized	Compound NOT metabolized	Compound NOT metabolized	Compound NOT metabolized	Compound NOT metabolized	Compound metabolized	Compound NOT metabolized
CCC(C)n1ncn(-c2ccc(N3CCN(c4ccc(OCC5COC(Cn6cncn6)(c6ccc(Cl)cc6Cl)O5)cc4)CC3)cc2)c1=O (stereo unspecified) [ITRACONAZOLE]	Compound NOT metabolized	Compound NOT metabolized	Compound NOT metabolized	Compound NOT metabolized	Compound NOT metabolized	Compound metabolized	Compound NOT metabolized	Compound NOT metabolized	Compound NOT metabolized	Compound NOT metabolized	Compound NOT metabolized	Compound NOT metabolized	Compound NOT metabolized	–	Compound NOT metabolized	Compound NOT metabolized	Compound NOT metabolized	Compound NOT metabolized	Compound NOT metabolized	Compound NOT metabolized
CN1CCC(=C2c3ccccc3CC(=O)c3sccc32)CC1.O=C(O)/C=C/C(=O)O [KETOTIFEN FUMARATE]	Compound NOT metabolized	Compound NOT metabolized	Compound NOT metabolized	Compound NOT metabolized	Compound NOT metabolized	Compound NOT metabolized	Compound NOT metabolized	Compound NOT metabolized	Compound NOT metabolized	Compound NOT metabolized	Compound NOT metabolized	Compound NOT metabolized	Compound NOT metabolized	–	Compound NOT metabolized	Compound NOT metabolized	Compound NOT metabolized	Compound NOT metabolized	Compound NOT metabolized	Compound NOT metabolized
CCN(CC)CCOC(=O)C(Cc1cccc2ccccc12)CC1CCCO1.O=C(O)C(=O)O (stereo unspecified) [NAFRONYL OXALATE]	Compound NOT metabolized	Compound NOT metabolized	Compound NOT metabolized	Compound NOT metabolized	Compound NOT metabolized	–	Compound NOT metabolized	Compound NOT metabolized	Compound NOT metabolized	Compound NOT metabolized	Compound NOT metabolized	Compound NOT metabolized	Compound NOT metabolized	Compound NOT metabolized	Compound NOT metabolized	–	Compound NOT metabolized	Compound NOT metabolized	Compound NOT metabolized	Compound NOT metabolized
CN(C(=O)CN(CCO)CC(=O)N(C)C(C)(C)Cc1ccccc1)C(C)(C)Cc1ccccc1 [OXETHAZAINE]	Compound NOT metabolized	Compound NOT metabolized	Compound NOT metabolized	Compound NOT metabolized	Compound NOT metabolized	–	Compound NOT metabolized	–	Compound NOT metabolized	Compound NOT metabolized	Compound NOT metabolized	Compound NOT metabolized	Compound NOT metabolized	Compound NOT metabolized	Compound NOT metabolized	Compound NOT metabolized	Compound NOT metabolized	Compound NOT metabolized	–	–
